# Reference: EPA's ToxValDB 9.5 (doi:10.2903/j.efsa.2006.69r)
# Assays:
# Brassica rapa = conditions: acute; duration: 21 days; seedling emergence
# Daphnia magna = conditions: chronic/long-term; duration: 21 days
# [1] = subchronic; duration: 56 days
# Apis mellifera = conditions: acute, mortality
# Lepomis macrochirus = conditions: acute; duration: 96 hours; mortality
# Canidae = conditions: oral, Dog Other, neurology
# Colinus virginianus = conditions: short-term; oral; diet; reproduction
# Pimephales promelas = conditions: chronic/long-term; duration: 32 days
# Rattus norvegicus = conditions: for LD50: acute
# Aphidius rhopalosiphi = assay: LR50; higher = less toxic; conditions: not reported; mortality
# [2] = short-term, oral, feed, mortality
structure (smiles),measurement,setting,value
CNC(=O)Oc1cccc(N=CN(C)C)c1.Cl [Formetanate hydrochloride],NOEC,Brassica rapa,> 500 g/ha
same,NOEC,Daphnia magna,0.0011 mg/L
same,NOAEC,[1],0.703 mg/L
same,LD50,Apis mellifera; dermal,1.02 µg/piece
same,LD50,"Apis mellifera; duration: 48 hours, oral, unspecified",0.16 µg/piece
same,LC50,Lepomis macrochirus,2.76 µg/mL
same,LC50,"Tagia sp.; acute, duration: 14 days, mortality",1050 mg/kg
same,NOEC,Tagia sp.; chronic/long-term,1.8 mg/kg
same,NOAEL,"Canidae; chronic, duration: 1 years",0.4 mg/kg-day
same,NOAEL,"Canidae; short-term, duration: 29 days",0.4 mg/kg-day
same,NOEC,Colinus virginianus,15.6 mg/kg-day
same,NOEC,Pimephales promelas,0.48 mg/L
same,LD50,"Rattus norvegicus; oral, F, mortality",14.8 mg/kg
same,LD50,"Rattus norvegicus; oral, M/F, mortality",21 mg/kg
same,NOEL,"Rattus norvegicus; reproduction developmental, mortality",22.4 mg/kg-day
same,NOAEL,"Rattus norvegicus; short-term, duration: 28 days, oral, gavage, F, clinical chemistry",0.5 mg/kg-day
same,LD50,"Anas platyrhynchos; acute, oral, unspecified, mortality",11.5 mg/kg
same,NOEC,Anas platyrhynchos; reproductive,15.6 mg/kg-day
same,LC50,Anas platyrhynchos; [2],116 mg/kg-day
same,NOEC,Anas platyrhynchos; [2],22.7 mg/kg-day
same,LR50,Aphidius rhopalosiphi,0.21 g/ha
